From patent US5616684A, “Cyclic peptides and use thereof” (priority 1991, dated 1997) come the findings set out here.

The conditions of series [1]: amide bond; 18-membered ring; HONB ester (HONB/DCC)/TEA; DMF; 5.0 mM; 4 steps.
Series [2] has as its target T1, endothelin receptor A (ETA) (Sus scrofa, UniProt Q29010).
T1 construct: A membrane fraction prepared from the porcine heart; from tissue; host or cells: porcine heart membrane fraction
T1 sequence (Q29010 21-427): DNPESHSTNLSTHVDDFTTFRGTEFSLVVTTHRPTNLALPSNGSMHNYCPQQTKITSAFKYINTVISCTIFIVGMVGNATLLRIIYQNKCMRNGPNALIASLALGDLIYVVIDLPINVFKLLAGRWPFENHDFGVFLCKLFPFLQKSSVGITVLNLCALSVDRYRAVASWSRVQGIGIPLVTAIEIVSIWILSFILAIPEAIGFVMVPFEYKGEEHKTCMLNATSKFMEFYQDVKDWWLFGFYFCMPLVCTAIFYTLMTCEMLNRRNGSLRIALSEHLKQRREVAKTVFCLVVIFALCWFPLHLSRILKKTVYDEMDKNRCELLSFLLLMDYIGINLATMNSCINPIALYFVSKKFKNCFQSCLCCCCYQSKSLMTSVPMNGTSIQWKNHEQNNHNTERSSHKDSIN
Briefly: Assay of Affinity for Receptor (1): Binding Activity on ETA Receptor. Also on record: key to Binding Activity on ET Receptor (R. act.) ETA: relative binding activity; reference cyclic pentapeptide = 1.0. The settings on record: specific activity, binding activity of cyclo[-D-Glu-Ala-D-aIle-Leu-D-Trp-] taken as 1.0; porcine heart membrane fraction, 125I-labeled endothelin-1, 25° C., 1 hour. The essentials: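 Porcine heart membranes (0.15 mg/ml) incubated with 125I-endothelin-1 and test peptide for 1 h at 25 °C, then diluted with ice-cold buffer and pelleted at 12,000×g; bound radioactivity gamma-counted. Values expressed as specific activity relative to cyclo[-D-Glu-Ala-D-aIle-Leu-D-Trp-] set at 1.0.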

Series [3] addresses T2, endothelin receptor B (ETB) (Bos taurus, UniProt P28088).
T2 construct: A membrane fraction prepared from the bovine brain; from tissue; host or cells: bovine brain membrane fraction
T2 sequence (P28088 27-441): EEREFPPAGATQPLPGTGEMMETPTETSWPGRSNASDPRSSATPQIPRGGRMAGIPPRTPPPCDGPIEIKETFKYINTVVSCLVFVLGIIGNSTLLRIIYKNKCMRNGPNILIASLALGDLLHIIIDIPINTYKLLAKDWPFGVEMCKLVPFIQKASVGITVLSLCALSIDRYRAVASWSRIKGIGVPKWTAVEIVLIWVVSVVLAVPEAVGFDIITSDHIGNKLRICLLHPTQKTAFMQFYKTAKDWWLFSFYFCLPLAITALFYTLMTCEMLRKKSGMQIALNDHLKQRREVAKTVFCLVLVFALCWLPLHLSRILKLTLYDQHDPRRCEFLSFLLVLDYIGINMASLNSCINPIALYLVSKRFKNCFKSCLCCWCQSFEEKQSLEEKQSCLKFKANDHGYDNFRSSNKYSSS
As to the kind of experiment: Assay of Affinity for Receptor (2): Binding Activity on ETB Receptor *1. To be noted: specific activity, binding activity of the compound of Example 8 taken as 100; bovine brain membrane fraction, 125I labeled endothelin-1, 25° C., 1 hour. The arrangement: key: relative specific activity, Example 8 compound = 100. The method, then:
Assay of Affinity for Receptor (2) . . . Binding Activity on ETB Receptor *1
A membrane fraction prepared from the bovine brain was diluted to 0.15 mg/ml by using a buffer solution for assay, and 100 μl of the resulting suspension of the membrane fraction was poured into each assay tube to use for assay. To this suspension of the membrane fraction was added 2 μl of 5 nM ^125 I labeled endothelin-1 solution. Further, 3 μl of a test peptide solution was added thereto, followed by incubation at a temperature of 25° C. for 1 hour. Then, the resulting suspension was diluted with 900 μl of the buffer solution for assay cooled with ice, and thereafter separated into a supernatant and a precipitate by centrifugation at 12,000×g for 10 minutes. Cell membranes and an endothelin receptor B (ETB) embedded therein were contained in the precipitate, and radioactive iodine-labeled endothelin bound to the receptor was also recovered in the precipitate. Accordingly, the amount of radioactive iodine-labeled endothelin bound to the endothelin receptor B (ETB) was determined by measuring the amount of radioactive iodine contained in the precipitate with a gamma-ray counter. The numerical value of ETB shown in Table 1 is the value of specific activity, taking the binding activity of the compound of Example 8 on the receptor B as 100.

For series [4], the system named is ETB receptor (guinea pig kidney crude receptor membrane fraction). As to the kind of experiment: ETB Radio Receptor Assay *2. The format is binding. To be noted: relative activity (Example 8 given as 100), 125I-endothelin-1, 37° C., 90 minutes. Summed up: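 Crude membranes from guinea pig kidney (2.1 μg protein) incubated with 740 Bq ^125I-endothelin-1 and test sample, 90 min at 37 °C, in 50 mM Tris-HCl pH 7.4 with 0.1 mM PMSF, 1 mM EDTA, 0.2% BSA. Bound ligand separated by fast filtration and counted by gamma counter.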

Non-standard residues stand in square brackets, D forms with d. Residues, ends and D or L forms follow the SMILES beside them. *: point of attachment. 1Nal = N[C@@H](Cc1cccc2ccccc12)C(=O)O; d(aIle) = CC[C@H](C)[C@@H](N)C(=O)O; Pip = O=C(O)[C@@H]1CCCCN1; Aze = O=C(O)[C@@H]1CCN1; Bn = c1ccc(C*)cc1

Turning to cyclo[-D-Asp-Trp-Asp-D-tLeu-Leu-D-Trp-], the ring closure, yield after HPLC in series [1] is 42.8%.
Regarding `CC(C)C[C@@H]1NC(=O)[C@@H](CC(C)C)NC(=O)[C@H](CC(=O)O)NC(=O)[C@@H]2CCN2C(=O)[C@@H](CC(=O)O)NC(=O)[C@@H](Cc2c[nH]c3ccccc23)NC1=O` [Example 25, Cyclo[--D--Asp--Azc--Asp--D--Leu--Leu--D--Trp--]] (cyclo([Aze]D[dL]L[dW][dD])), the “Binding Activity on ET Receptor (R. act.) ETA” value in series [2] came out at 30. For the same compound, the “Binding Activity on ET Receptor (R. act.) ET8 *1” value in series [3] was found to be 25. Also, the “Binding Activity on ET Receptor (R. act.) ET8 *2” value in series [4] amounted to 57.
Consider `CC(C)C[C@@H]1NC(=O)[C@@H](CC(C)C)NC(=O)[C@@H]2CCCN2C(=O)[C@H](Cc2c[nH]c3ccccc23)NC(=O)[C@@H](CC(=O)O)NC(=O)[C@@H](Cc2c[nH]c3ccccc23)NC1=O` [Example 36, Cyclo[--D--Asp--Trp--Pro--D--Leu--Leu--D--Trp--]] (cyclo(L[dW][dD]WP[dL])), for which, in series [2], the “Binding Activity on ET Receptor (R. act.) ETA” value is reported as 17. In series [3], the “Binding Activity on ET Receptor (R. act.) ET8 *1” value is 40. Also, the “Binding Activity on ET Receptor (R. act.) ET8 *2” value in series [4] is 42.
The like results for `CC(C)C[C@@H]1NC(=O)[C@@H](CC(C)C)NC(=O)[C@H](CC(=O)O)NC(=O)[C@H](Cc2c[nH]c3ccccc23)NC(=O)[C@@H](CC(=O)O)NC(=O)[C@@H](Cc2c[nH]c3ccccc23)NC1=O` [Example 8, cyclo[-D-Asp-Trp-Asp-D-Leu-Leu-D-Trp-]] (cyclo(D[dL]L[dW][dD]W)) were, in that order, 76, 100 and 100.
Turning to “cyclo[-D-Asp-Glu(Bzl)-Asp-D-Thg(2)-Leu-D-Trp-] [Example 89]”, the “Binding Activity on ET Receptor (R. act.) ETA” value in series [2] is 750. Moreover, in series [3], the “Binding Activity on ET Receptor (R. act.) ET8 *1” value turned out to be 45. Besides, the “Binding Activity on ET Receptor (R. act.) ET8 *2” value in series [4] was 71.
As for `CC(C)C[C@@H]1NC(=O)[C@@H](CC(C)C)NC(=O)[C@H](COCc2ccccc2)NC(=O)[C@H](Cc2c[nH]c3ccccc23)NC(=O)[C@@H](CC(=O)O)NC(=O)[C@@H](Cc2c[nH]c3ccccc23)NC1=O` [Example 38, Cyclo[--D--Asp--Trp--Ser(Bzl)--D--Leu--Leu--D--Trp--]] (cyclo(L[dW][dD]WS(Bn)[dL])), the “Binding Activity on ET Receptor (R. act.) ETA” value in series [2] is 13. In addition, in series [3], the “Binding Activity on ET Receptor (R. act.) ET8 *1” value is 66. Besides, the “Binding Activity on ET Receptor (R. act.) ET8 *2” value in series [4] came to 170.
As for `CC(C)C[C@@H]1NC(=O)[C@@H](CC(C)C)NC(=O)[C@H](CO)NC(=O)[C@H](Cc2c[nH]c3ccccc23)NC(=O)[C@@H](CC(=O)O)NC(=O)[C@@H](Cc2c[nH]c3ccccc23)NC1=O` [Example 37, Cyclo[--D--Asp--Trp--Ser--D--Leu--Leu--D--Trp--]] (cyclo(L[dW][dD]WS[dL])), the “Binding Activity on ET Receptor (R. act.) ETA” value in series [2] was determined as 24. Besides, the “Binding Activity on ET Receptor (R. act.) ET8 *1” value in series [3] is 22. Moreover, the “Binding Activity on ET Receptor (R. act.) ET8 *2” value in series [4] is 18.
For `CC(C)C[C@@H]1NC(=O)[C@@H](CC(C)C)NC(=O)[C@H](CC(=O)O)NC(=O)[C@@H]2CCCCN2C(=O)[C@@H](CC(=O)O)NC(=O)[C@@H](Cc2c[nH]c3ccccc23)NC1=O` [Example 26, Cyclo[--D--Asp--Pip--Asp--D--Leu--Leu--D--Trp--]] (cyclo(D[dL]L[dW][dD][Pip])), the “Binding Activity on ET Receptor (R. act.) ETA” value in series [2] was 25. In addition, the “Binding Activity on ET Receptor (R. act.) ET8 *1” value in series [3] was found to be 38. Further, in series [4], the “Binding Activity on ET Receptor (R. act.) ET8 *2” value is 73.
Take `CC[C@H](C)[C@H]1NC(=O)[C@H](CC(=O)O)NC(=O)[C@H](Cc2c[nH]c3ccccc23)NC(=O)[C@@H](CC(=O)O)NC(=O)[C@@H](Cc2c[nH]c3ccccc23)NC(=O)[C@H](CC(C)C)NC1=O` [Example 51, Cyclo[--D--Asp--Trp--Asp--D--aIle--Leu--D--Trp--]] (cyclo(D[d(aIle)]L[dW][dD]W)): the “Binding Activity on ET Receptor (R. act.) ETA” value in series [2] amounted to 100. The “Binding Activity on ET Receptor (R. act.) ET8 *1” value in series [3] was determined as 210. In addition, the “Binding Activity on ET Receptor (R. act.) ET8 *2” value in series [4] came out at 290.
The corresponding values for `CC(C)C[C@@H]1NC(=O)[C@@H](CC(C)C)NC(=O)[C@H](CC(=O)O)NC(=O)[C@H](Cc2cccc3ccccc23)NC(=O)[C@@H](CC(=O)O)NC(=O)[C@@H](Cc2c[nH]c3ccccc23)NC1=O` [Example 23, Cyclo[--D--Asp--Nal(1)--Asp--D--Leu--Leu--D--Trp--]] (cyclo([1Nal]D[dL]L[dW][dD])) are 8.3, 11 and 7.7.
As for `CC(C)C[C@@H]1NC(=O)[C@@H](Cc2ccccc2)NC(=O)[C@H](CC(=O)O)NC(=O)[C@H](Cc2c[nH]c3ccccc23)NC(=O)[C@@H](CC(=O)O)NC(=O)[C@@H](Cc2c[nH]c3ccccc23)NC1=O` [Example 60, Cyclo[--D--Asp--Trp--Asp--D--Phe--Leu--D--Trp--]] (cyclo(D[dF]L[dW][dD]W)), in series [2], the “Binding Activity on ET Receptor (R. act.) ETA” value came to 1. In addition, the “Binding Activity on ET Receptor (R. act.) ET8 *1” value in series [3] amounted to 210. Besides, the “Binding Activity on ET Receptor (R. act.) ET8 *2” value in series [4] was 44.
